Data set [1] deals with Salmonella strain TA102 base substitutive mutation strain. Format: cell-based. The conditions noted are these: Positive Control/plate. The protocol:
To test mutagenicity of the content of GI Capsules, Ames tests were conducted on four Salmonella strains: TA97a, TA98 frameshift mutation strain, TA100, and TA102 base substitutive mutation strain. Ames (1983) Mutation Research 113:173-215. Five genetic characteristics of these four strains were determined to meet the requirement for the testing. The content of GI Capsules at five concentrations was tested: 5 mg/plate, 2.5 mg/plate, 1.0 mg/plate, 0.5 mg/plate, 0.1 mg/plate. The negative control was PBS. […]

In data set [2] the test system is Kunming mice. The settings on record: positive control 35 mg/kg.
In data set [3] the test system is Kunming mice. The settings on record: positive control 35 mg/kg. The source holds these as a separate data set.
In the next data set the test system is Salmonella strain TA100. As to the kind of experiment: Ames test, strain TA100. Format: cell-based. The conditions noted are these: Positive Control/plate, 2 ul.
Data set [4] deals with Kunming mice constipated by diphenoxylate. The data set can be described thus: Laxative effects on mouse models for constipation (diphenoxylate). Format: in vivo. The settings on record: Positive control group, diphenoxylate 50 mg/kg alone. How it is done: (§1) The content of GI Capsules was tested for laxative effects, i.e., the effects of the loosening the bowels to relieve constipation, on mouse models for constipation. Healthy Kunming mice were divided randomly into 5 groups, 20 in each group. […] The negative control group consists of 20 mice fed normally and the positive control group 20 mice fed with diphenoxylate at 50 mg/kg BW.
(§2) The test samples were diluted with distilled water into required concentrations and volume of 0.1 ml/10 g BW, and continuously administrated to the mice by oral gavage once a day for 14 days. The mice were fed with normal food during this period. On the last day of administration, mice were kept on fast for 24 hours overnight, but water was given. Then the content of GI Capsules were administered to mice in the three dosage groups by oral gavage. Twenty minutes later, diphenoxylate (50 mg/kg) was administered to all animals except those in the negative control group at the dosage of 0.1 ml/10 g. Ten minutes later, carbon ink (5% carbo activatus, 10% Arabic gum) was administered to all animals by oral gavage at the dosage of […]. All animals in each group were divided into two subgroups, 10 mice in each subgroup. One subgroup in each group was kept for observation of their dejection for 24 hours. The other was killed twenty minutes later and cut open the belly to measure the length of small intestine and the distance between pylorus and the front line of carbon ink to calculate carbon moving rates.

The nature of data set [5]: Body weight of mice in the laxative study. Format: in vivo, mouse. The settings on record: Positive control group (diphenoxylate 50 mg/kg BW). How it is done: as §1, §2

For `Nc1ccc2cc3ccccc3cc2c1` [2-AA], the “Ames mutation data TA102 +S9” value in data set [1] (12 ug) worked out at 1411.00.

On to `O=P1(N(CCCl)CCCl)NCCCO1` (stereo not shown) [CP, cyclophosphamide], for which the “Micronucleus rate, Female” value with Kunming mice [2] (female mice) is 21.2 ± 2.28 ‰. Further, the “Micronucleus PCE, Female” value with Kunming mice [2] (female mice, of 5000 PCE) is 106. For the same compound, the “Micronucleus rate, Male” value with Kunming mice [2] (male mice) is reported as 20.6 ± 2.41 ‰. Moreover, the “Micronucleus PCE, Male” value in the data set on Kunming mice [2] (male mice, of 5000 PCE) amounted to 103. Also, in the data set with Kunming mice [3], the Aberration rate came out at 20.80 ± 0.98%. In the data set with Kunming mice [3] (10 mice, of 10000 sperm), this compound came in with an Aberrant sperm of 2080.

As for `COS(C)(=O)=O` [MMS], the “Ames mutation data TA100 −S9” value in the data set with Salmonella strain TA100 was found to be 1460.00. Besides, the “Ames mutation data TA102 −S9” value in data set [1] (2 ul) came to 2960.00.

In data set [4], `CCOC(=O)C1(c2ccccc2)CCN(CCC(C#N)(c2ccccc2)c2ccccc2)CC1` [diphenoxylate] came in with a Carbon moving rate of 33.2 ± 10.5% and a First dejection time of 230.6 ± 56.0 min. In data set [4] (24 hours observation), the “Total amounts of dejection” value is recorded as 1.0 ± 0.2 g and the “Weight Dung grain” value came out at 16.4 ± 3.6 grain. In data set [5], the “Weight 0th day” value was determined as 19.5 ± 1.2, the “Weight 7th day” value turned out to be 25.3 ± 0.9 and the “Weight 14th day” value came out at 29.2 ± 1.4.

(Values after patent US7399492B2, “Composition and method for issue repair and regeneration” (priority 2001, dated 2008).)
